Experimental data: patent US20250205173A1, “DERMAL AND TRANSDERMAL ADMINISTRATION OF TREPROSTINIL AND SALTS THEREOF” (CORSAIR PHARMA, INC., priority 2019, published 2025)

Assays:
[1] = In vitro skin permeability assay, vertical Franz diffusion cell; format: in vitro ADME; details: human epidermis from different donors, 32° C., N=4 per donor
Description: A skin permeability assay was performed using a vertical Franz diffusion cell having a diffusion area of 0.64 cm^2 and a volume of 7.5 mL. The assay was conducted at 32° C. with continuous stirring. Heat-separated human cadaver epidermis was used in the assay, the epidermis being stored at −20° C. after the heat-stripping procedure. The human epidermis was thawed prior to being mounted on the diffusion cell. Treprostinil was applied on the skin, and the diffusion cell was closed by screw-cap. At various time intervals, whole medium or receptor medium was replaced by fresh medium. Part of the collected medium was used to calculate the cumulative skin permeability of treprostinil at 72 hours. The skin permeability of treprostinil was evaluated using human epidermis from different donors. N=4 replicates were performed for treprostinil tested on human epidermis from a particular donor.

[2] = Skin irritation study of treprostinil reservoir-type transdermal patch, Draize scale; format: in vivo, Göttingen Minipigs; set-up: key to Edema score: 0: No edema; 1: Very slight edema (barely perceptible); 2: Slight edema (edges of area well defined by definite raising); 3: Moderate edema (raised about 1 mm); 4: Severe edema (raised >1 mm and extending beyond area of exposure); key to Erythema score: 0: No erythema; 1: Very slight erythema (barely perceptible); 2: Well-defined erythema; 3: Moderate to severe erythema; 4: Severe erythema (beet redness) to slight eschar formation (injuries in depth); details: for Edema score / Erythema score: 10 mg patch
Description: The pig is frequently used in studies involving dermal or transdermal administration of a drug because the skin of the pig is very similar to human skin. Skin irritation following transdermal administration of treprostinil from a reservoir-type transdermal patch was assessed in Göttingen Minipigs® (Marshall BioResources, North Rose, New York). The treprostinil-containing reservoir transdermal patch was a 32 cm^2 circular patch with a 6 cm^2 gel-sealed area and a 26 cm^2 peripheral skin-adhesive area. The placebo reservoir transdermal patch was a 39 cm^2 oval patch with a 12 cm^2 gel-sealed area and a 27 cm^2 peripheral skin-adhesive area. The reservoir of the patches comprised a gel composed of hydroxypropyl cellulose and containing ethanol, isopropyl myristate and 10 mg treprostinil or no active agent for the placebo patch. The reservoir was packaged by heat seal between a backing layer composed of metalized polyester/ethylene-vinyl acetate and a semi-permeable microporous membrane composed of polyethylene. A transparent release liner that protected the gel reservoir area and the peripheral adhesive area was peeled off immediately prior to patch application. The patches had the structure of the patch depicted in FIG. 1. To facilitate patch application (dosing) and to ensure animal safety during the dosing procedure, the minipigs were sedated with the anesthetic Telazol, if necessary, via intramuscular injection at an initial dose of 3-6 mg/kg. Any use of Telazol is indicated in the study data. Both the treprostinil-containing and placebo transdermal patches were applied to the dorsal surface of each of three female Göttingen Minipigs® weighing about 15-25 kg and were left in place for 24 hr. The dosing sites (the entire flank on both sides of the dorsal midline, caudal to the scapula) were carefully clipped with an electric clipper on the day prior to application of the patches and then were carefully washed with room temperature (RT) saline to remove dirt and debris. The prepared area was large enough to accommodate several patches. The dosing sites then were carefully shaved smooth with a razor while not causing any nick or cut. RT saline, but no shaving cream, could be used to assist shaving. The dosing sites were then wrapped with bandaging that was secured with a non-irritating, semi-occlusive tape (e.g., Elastikon tape). The minipigs were then fitted with a jacket. On the day of application of the patches, the jacket and wrapping were removed from the minipigs. The dosing sites were visually inspected to confirm the absence of any abrasion or obvious dermal pathology, and were gently cleaned with an isopropanol wipe and were then allowed to air-dry for at least 5 min. The patches were applied to areas of the skin without any abrasion or obvious dermal pathology by applying firm finger pressure to the peripheral adhesive area of the patches to ensure firm adherence of the peripheral area to the skin. To prevent detachment of the patches, TegadermTM dressing (or an equivalent transparent adhesive dressing, such as PatchProtectTM dressing) was applied over the patches, extending at least 2 inches beyond the edges of the patches and adhering to the peripheral area of the patches and to the skin surrounding the patches. The sites of patch application were wrapped with gauze or […] bandaging (or equivalent) that was secured with a non-irritating, semi-occlusive tape (e.g., Elastikon tape). The minipigs were then fitted with a jacket to prevent patch disturbance. The patches were kept in place at the dosing sites for 24 hr. […] Photographs of the sites of patch application were taken just prior to patch removal, following patch removal, and at 2 (±15 min), 24 (±1 hr), 48, 72, 96, 120, 144 and 168 hours after patch removal. The following scores are based on the Draize scale for scoring skin irritation [J. Draize et al., J. Pharmacol. Exp. Ther., 82:377-390 (1944)]. [table] [table]

[3] = Pharmacokinetics of transdermally delivered treprostinil from reservoir-type patch; details: Göttingen, minipig, in vivo, four patches, total 160 mg treprostinil, in place 72 hr, two male minipigs
From the text: Pharmacokinetics (PK) following transdermal administration of treprostinil from a reservoir-type transdermal patch was studied in Göttingen Minipigs® (Marshall BioResources). The treprostinil-containing reservoir transdermal patch was a 39 cm^2 oval patch with a 12 cm^2 gel-sealed area and a 27 cm^2 peripheral skin-adhesive area. […] Naïve male Göttingen Minipigs® about 6 months of age at receipt and weighing about 23 kg at patch application were used in the PK study. To facilitate application of the transdermal patch, the minipigs were sedated with Telazol at 3 mg/kg via intramuscular injection. Prior to patch application the dosing sites on the minipigs were prepared similarly as described in Example 2, and patch application was performed similarly as described in Example 2 except that bandaging was reapplied to the sites of patch application once a day. Four transdermal patches containing a total of 160 mg treprostinil were applied at the same time to the dorsal surface of each of two minipigs and were left in place for 72 hr. Blood samples were collected within 1 hr prior to application of the patches; at 3, 6, 12, 24, 48 and 72 hours after application of the patches; and at 0.167, 0.5, 1, 2, 4 and 6 hours after removal of the patches.

[4] = cited from earlier work
[5] = cited from earlier work; remark: listed apart in the source
[6] = minipig 601, 2 hr post patch removal, 24 hr
[7] = minipig 601, 24 hr post patch removal, 24 hr
[8] = minipig 601, 48 hr post patch removal, 24 hr
[9] = minipig 601, 72 hr post patch removal, 24 hr
[10] = minipig 601, 96 hr post patch removal, 24 hr
[11] = minipig 601, 120 hr post patch removal, 24 hr
[12] = minipig 601, before patch application
[13] = minipig 602, 2 hr post patch removal, 24 hr
[14] = minipig 602, 24 hr post patch removal, 24 hr
[15] = minipig 602, 48 hr post patch removal, 24 hr
[16] = minipig 602, 72 hr post patch removal, 24 hr
[17] = minipig 602, 96 hr post patch removal, 24 hr
[18] = minipig 602, 120 hr post patch removal, 24 hr
[19] = minipig 602, before patch application
[20] = minipig 603, 2 hr post patch removal, 24 hr
[21] = minipig 603, 24 hr post patch removal, 24 hr
[22] = minipig 603, 48 hr post patch removal, 24 hr
[23] = minipig 603, 72 hr post patch removal, 24 hr
[24] = minipig 603, 96 hr post patch removal, 24 hr
[25] = minipig 603, 120 hr post patch removal, 24 hr
[26] = minipig 603, before patch application

CCCCC[C@H](O)CC[C@@H]1[C@H]2Cc3cccc(OCC(=O)O)c3C[C@H]2C[C@H]1O [Treprostinil]
cumulative skin permeability at 72 hours [1]: high
Edema score [2, 6]: 0
Erythema score [2, 6]: 1
Edema score [2, 7]: 0
Erythema score [2, 7]: 1
Edema score [2, 8]: 0
Erythema score [2, 8]: 1
Edema score [2, 9]: 0
Erythema score [2, 9]: 0
Edema score [2, 10]: 0
Erythema score [2, 10]: 0
Edema score [2, 11]: 0
Erythema score [2, 11]: 0
Edema score [2, 12]: 0
Erythema score [2, 12]: 0
Edema score [2, 13]: 0
Erythema score [2, 13]: 1
Edema score [2, 14]: 0
Erythema score [2, 14]: 1
Edema score [2, 15]: 0
Erythema score [2, 15]: 0
Edema score [2, 16]: 0
Erythema score [2, 16]: 0
Edema score [2, 17]: 0
Erythema score [2, 17]: 0
Edema score [2, 18]: 0
Erythema score [2, 18]: 0
Edema score [2, 19]: 0
Erythema score [2, 19]: 0
Edema score [2, 20]: 0
Erythema score [2, 20]: 2
Edema score [2, 21]: 0
Erythema score [2, 21]: 2
Edema score [2, 22]: 0
Erythema score [2, 22]: 0
Edema score [2, 23]: 0
Erythema score [2, 23]: 0
Edema score [2, 24]: 0
Erythema score [2, 24]: 0
Edema score [2, 25]: 0
Erythema score [2, 25]: 0
Edema score [2, 26]: 0
Erythema score [2, 26]: 0
skin irritation (summary) ([2]; reservoir patch 10 mg treprostinil with isopropyl myristate and ethanol, in place 24 hr, three female minipigs): did not cause significant skin irritation
concentration at 72 hr ([3]; other: transdermal (reservoir-type patch), read-out: C72 hr): 2.4 to 4.9 ng/mL
Cmax ([3]; topical or ocular): 20.8 to 27.6 ng/mL
Tmax ([3]; topical or ocular): 6 h
AUC(0-t) ([3]; topical or ocular, read-out: AUC0-72): 429 to 946 ng·h/mL
half-life ([3]; topical or ocular, read-out: half-life (T1/2) during treatment): 28 to 35 h
systemic half-life ([4]; free acid, due to significant metabolism): very short
absolute oral bioavailability ([4]; treprostinil as the free acid, oral): less than 10%
peak-to-trough ratio of plasma concentrations ([5]; administered by inhalation): large
PAH patients who cannot take inhaled treprostinil due to irritation to the lungs ([5]; inhalation): about 50%
